The text below walks through data of patent US8877707B2, “Inhibitors of HCV NS5A” (Presidio Pharmaceuticals, Inc., priority 2010, dated 2014).

The experiment concerns HCV genotype 1b replicon in Huh 7 cells. Nature of the experiment: HCV replicon assay (1b_Huh-Luc/Neo-ET cell line, luciferase readout). Type of experiment: cell-based. Particulars: Hepatitis C virus, read-out: Inhibition of HCV genotype 1b. How it is done:
Biological activity of the compounds of the invention was determined using an HCV replicon assay. The 1b_Huh-Luc/Neo-ET cell line persistently expressing a bicistronic genotype 1b replicon in Huh 7 cells was obtained from ReBLikon GMBH. This cell line was used to test compound inhibition using luciferase enzyme activity readout as a measurement of compound inhibition of replicon levels.
On Day 1 (the day after plating), each compound is added in triplicate to the cells. Plates incubated for 72 h prior to running the luciferase assay. Enzyme activity was measured using a Bright-Glo Kit (cat. number E2620) manufactured by Promega Corporation. The following equation was used to generate a percent control value for each compound. % Control=(Average Compound Value/Average Control)*100
The EC50 value was determined using GraphPad Prism and the following equation: Y=Bottom+(Top−Bottom)/(1+10^((Log IC50−X)*HillSlope))
EC50 values of compounds are repeated several times in the replicon assay.
In general terms: A replicon is a self-replicating genome or part of one, used to study replication in cells.

Where [1] appears, read: Table 1, genotype 1b replicon, Huh 7 cells, 72 h, luciferase.
Setting [2] is: Table 2, genotype 1b replicon, Huh 7 cells, 72 h, luciferase.

Structures are written as SMILES. Where two headings read alike, the source gives them in different places.

With `CNC(=O)N[C@@H](C(=O)N1CCC[C@H]1c1nc(-c2ccc3cc(-c4ccc(-c5cnc([C@@H]6CCCN6C(=O)[C@@H](NC(=O)OC)C(C)C)[nH]5)cc4)ccc3c2)c[nH]1)c1ccccc1` [14s], the EC50 (Huh-7, 72 h) was < 1 nM.
As for `COC(=O)N[C@H](C(=O)N1CCC[C@H]1c1ncc(-c2ccc3nc(-c4ccc5c(c4)CCc4nc([C@@H]6CCCN6C(=O)[C@@H](NC(=O)OC)C(C)C)[nH]c4-5)ccc3c2)[nH]1)C(C)C` [292-1], the EC50 under setting [1] is < 1 nM.
On the same count and under the same terms, the value for `COC(=O)N[C@H](C(=O)N1CCC[C@H]1c1nc2c([nH]1)-c1ccc(-c3ccc4cc(-c5cnc([C@@H]6CCCN6C(=O)[C@@H](NC(=O)OC)C6CCOCC6)[nH]5)ccc4n3)cc1CC2)C(C)C` [293-1] was < 1 nM; that for `COC(=O)N[C@H](C(=O)N1CCC[C@H]1c1nc2c([nH]1)-c1ccc(-c3ccc4cc(-c5cnc([C@@H]6CCCN6C(=O)[C@H](NC(=O)OC)c6ccccc6)[nH]5)ccc4n3)cc1CC2)C(C)C` [294-1] was < 1 nM; that for `COC(=O)N[C@H](C(=O)N1CCC[C@H]1c1nc2c([nH]1)-c1ccc(-c3ccc4cc(-c5cnc([C@@H]6CCCN6C(=O)[C@H](NC(=O)OC6CCOCC6)c6ccccc6)[nH]5)ccc4n3)cc1CC2)C(C)C` [295-1] was < 1 nM.
Take `COC[C@H](NC(=O)OC)C(=O)N1CCOC[C@H]1c1ncc(-c2ccc3cc(-c4ccc(-c5cnc([C@@H]6CCCN6C(=O)[C@H](NC(=O)OC)c6ccccc6)[nH]5)cc4)ccc3c2)[nH]1` [325-1]: the EC50 under setting [2] was < 1 nM.
Same read-out and setting: the figure for `COC(=O)N[C@H](C(=O)N1CCC[C@H]1c1ncc(-c2ccc3cc(-c4ccc(-c5cnc([C@@H]6CCCN6C(=O)[C@H](NC(=O)OC)c6ccsc6)[nH]5)cc4)ccc3c2)[nH]1)[C@@H](C)OC` [330-1] is < 1 nM; for `COC(=O)N[C@H](C(=O)N1CCC[C@H]1c1ncc(-c2ccc3cc(-c4ccc(-c5cnc([C@@H]6CCCN6C(=O)[C@H](NC(=O)OC)c6cccs6)[nH]5)cc4)ccc3c2)[nH]1)[C@@H](C)OC` [331-1] it is < 1 nM.
On to `COC[C@H](NC(=O)OC)C(=O)N1CCC[C@H]1c1ncc(-c2ccc3cc(-c4ccc5nc([C@@H]6CCCN6C(=O)[C@H](COC)NC(=O)OC)[nH]c5c4)ccc3c2)[nH]1` [345-1], for which the EC50 under setting [2] was < 1 nM.
On the same count and under the same terms, the figure for `COC[C@H](NC(=O)OC)C(=O)N1CCC[C@H]1c1ncc(-c2ccc3cc(-c4ccc5nc([C@@H]6COCCN6C(=O)[C@H](COC)NC(=O)OC)[nH]c5c4)ccc3c2)[nH]1` [358-1] is < 1 nM.
Regarding `COC(=O)N[C@H](C(=O)N1CCC[C@H]1c1nc(-c2ccc3cc(-c4ccc(-c5cnc([C@@H]6CCCN6C(=O)[C@@H](NC(=O)OC)C(C)C)[nH]5)cc4)ccc3c2)c[nH]1)C(C)C` [compound 1], the EC50 under setting [1] was < 1 nM.
The same measure, in the same setting: the figure for `COC(=O)N[C@@H](C(=O)N1CCC[C@H]1c1nc(-c2ccc3cc(-c4ccc(-c5cnc([C@@H]6CCCN6C(=O)[C@H](NC(=O)OC)C(C)C)[nH]5)cc4)ccc3c2)c[nH]1)C(C)C` [compound 2] is 1 to 9.9 nM.
The same measure, in the same setting: the figure for `COC(=O)N[C@H](C(=O)N1CCC[C@H]1c1nc(-c2ccc3cc(-c4ccc(-c5cnc([C@@H]6CCCN6C(=O)[C@@H](NC(=O)OC)[C@@H](C)OC)[nH]5)cc4)ccc3c2)c[nH]1)[C@@H](C)OC` [compound 3] is < 1 nM.
On the same count and under the same terms, the figure for `COC(=O)N[C@H](C(=O)N1CCC[C@H]1c1nc(-c2ccc3cc(-c4ccc(-c5cnc([C@@H]6CCCN6C(=O)[C@@H](NC(=O)OC)[C@@H](C)O)[nH]5)cc4)ccc3c2)c[nH]1)[C@@H](C)O` [compound 4] is < 1 nM; for `COC(=O)N[C@H](C(=O)N1CCC[C@H]1c1nc(-c2ccc3cc(-c4ccc(-c5cnc([C@@H]6CCCN6C(=O)[C@@H](c6ccccc6)N(C)C)[nH]5)cc4)ccc3c2)c[nH]1)C(C)C` [compound 5] it is < 1 nM.
For `COC(=O)N[C@H](C(=O)N1CCC[C@H]1c1ncc(-c2ccc(-c3ccc4cc(-c5c[nH]c([C@@H]6CCCN6C(=O)[C@@H](c6ccccc6)N(C)C)n5)ccc4c3)cc2)[nH]1)C(C)C` [compound 6], the EC50 under setting [1] is < 1 nM.
Same read-out and setting: the value for `COC(=O)N[C@H](C(=O)N1CCC[C@H]1c1ncc(-c2ccc(-c3ccc4cc(-c5c[nH]c([C@@H]6CCCN6C(=O)[C@H](NC(=O)OC)c6ccccc6)n5)ccc4c3)cc2)[nH]1)C(C)C` [compound 7] was < 1 nM; that for `COC(=O)N[C@H](C(=O)N1CCC[C@H]1c1nc(-c2ccc3cc(-c4ccc(-c5cnc([C@@H]6CCCN6C(=O)[C@H](NC(=O)OC)c6ccccc6)[nH]5)cc4)ccc3c2)c[nH]1)C(C)C` [compound 8] was < 1 nM; that for `COC(=O)N[C@H](C(=O)N1CCC[C@H]1c1ncc(-c2ccc(-c3ccc4cc(-c5c[nH]c([C@@H]6CCCN6C(=O)[C@@H](c6ccccc6)N6CCCC6)n5)ccc4c3)cc2)[nH]1)C(C)C` [compound 9] was < 1 nM.
For `COC(=O)N[C@H](C(=O)N1CCC[C@H]1c1nc(-c2ccc3cc(-c4ccc(-c5cnc([C@@H]6CCCN6C(=O)[C@@H](c6ccccc6)N6CCCC6)[nH]5)cc4)ccc3c2)c[nH]1)C(C)C` [compound 10], the EC50 under setting [1] is < 1 nM.
Regarding `COC(=O)N[C@H](C(=O)N1CCC[C@H]1c1nc(-c2ccc3nc(-c4ccc(-c5cnc([C@@H]6CCCN6C(=O)[C@@H](NC(=O)OC)C(C)C)[nH]5)cc4)cnc3c2)c[nH]1)C(C)C` [compound 11], under setting [1], the EC50 was < 1 nM.
As to `COC(=O)N[C@H](C(=O)N1CCC[C@H]1c1ncc(-c2ccc(-c3cnc4ccc(-c5cnc([C@@H]6CCCN6C(=O)[C@@H](NC(=O)OC)C(C)C)[nH]5)cc4n3)cc2)[nH]1)C(C)C` [compound 12], the EC50 under setting [1] lay within 1 to 9.9 nM.
Turning to `COC(=O)N[C@H](C(=O)N1CCC[C@H]1c1nc(-c2ccc3cc(-c4ccc(-c5cnc([C@@H]6CCCN6C(=O)[C@@H](NC(=O)OC)C(C)C)[nH]5)cn4)ccc3c2)c[nH]1)C(C)C` [compound 13], the EC50 under setting [1] is < 1 nM.
Turning to `COC(=O)N[C@H](C(=O)N1CCC[C@H]1c1ncc(-c2ccc(-c3ccc4cc(-c5c[nH]c([C@@H]6CCCN6C(=O)[C@H](NC(=O)N6CC[C@H](O)C6)c6ccccc6)n5)ccc4c3)cc2)[nH]1)C(C)C` [compound 15], the EC50 under setting [1] is < 1 nM.
On the same count and under the same terms, the value for `COC(=O)N[C@H](C(=O)N1CCC[C@H]1c1nc(-c2ccc3cc(-c4ccc(-c5cnc([C@@H]6CCCN6C(=O)[C@H](NC(=O)N6CC[C@H](O)C6)c6ccccc6)[nH]5)cc4)ccc3c2)c[nH]1)C(C)C` [compound 16] was < 1 nM; that for `COC(=O)N[C@H](C(=O)N1CCC[C@H]1c1nc(-c2ccc3nc(-c4ccc(-c5cnc([C@@H]6CCCN6C(=O)[C@@H](NC(=O)OC)C(C)C)[nH]5)cc4)ncc3c2)c[nH]1)C(C)C` [compound 17] was < 1 nM; that for `CNC(=O)N[C@@H](C(=O)N1CCC[C@H]1c1ncc(-c2ccc(-c3ccc4cc(-c5c[nH]c([C@@H]6CCCN6C(=O)[C@@H](NC(=O)OC)C(C)C)n5)ccc4c3)cc2)[nH]1)c1ccccc1` [compound 18] was < 1 nM.
On the same count and under the same terms, the value for `COC(=O)N[C@H](C(=O)N1CCC[C@H]1c1nc(-c2cnc3cc(-c4ccc(-c5cnc([C@@H]6CCCN6C(=O)[C@@H](NC(=O)OC)C(C)C)[nH]5)cc4)ccc3c2)c[nH]1)C(C)C` [compound 19] was < 1 nM; that for `COC(=O)N[C@H](C(=O)N1CCC[C@H]1c1ncc(-c2ccc(-c3cccc4c(-c5cnc([C@@H]6CCCN6C(=O)[C@@H](NC(=O)OC)C(C)C)[nH]5)cccc34)cc2)[nH]1)C(C)C` [compound 20] was < 1 nM.
